Data published in patent US10287298B2, “Nitrogen-containing analogs of salinomycin, synthesis and use against cancer stem cells and malaria” (Centre National de la Recherche Scientifique (CNRS), priority 2014, dated 2019).

Tested on: HMLER CD24low cells
Test: Intracellular sodium measurement (SBFI-AM)
Type: cell-based, Human
Details: 5 min treatment
Procedure: Intracellular sodium measurement: Sodium and potassium buffers (10 mM HEPES, 1 mM CaCl2, 1 mM MgCl2, 130 mM Sodium-D-Gluconate or Potassium-D-Gluconate, 30 mM NaCl/KCl) were mixed at different ratios to produce five buffers with various sodium concentrations (0, 20, 40, 80, 160 mM). Nigericin (N7143, Sigma, 10 μM) and monensin (M5273, Sigma, 10 μM) were used to equilibrate the intracellular sodium concentration and establish a calibration curve. HMLER CD24low cells were harvested and re-suspended in ECS buffer (15 mM HEPES, 5.4 mM KCl, 140 mM NaCl, 10 mM Glucose, 1 mM MgCl2, 1.8 mM CaCl2, 0.1% BSA, pH 7.6) containing 10 μM of the sodiumspecific probe (SBFI-AM, S-1263, Molecular Probes®) and 0.2% Pluronic F-127 (P2443, Sigma) and were incubated for 1 h in the dark at 37° C. Then, cells were washed to remove excess dye and incubated for an additional 30 min in ECS buffer. […] Each well was sequentially excited at 340 and 370 nm and emission was recorded at 500 nm. The spectral response of SBFI upon sodium binding was assessed by excitation ratio measurement (340/370 nm). Measurements were performed on a Perkin Elmer Wallac 1420 Victor2 Microplate Reader at 37° C.

`CCC(C(=O)O)[C@H]1CC[C@H](C)C([C@@H](C)[C@H](O)[C@H](C)C(=O)[C@H](CC)[C@H]2O[C@]3(C=C[C@@H](O)[C@]4(CC[C@@](C)([C@H]5CC[C@](O)(CC)[C@H](C)O5)O4)O3)[C@H](C)C[C@@H]2C)O1` (stereo partly shown) [Salinomycine, Salinomycin] was tested, and the intracellular sodium was “induced a fast increase in intracellular sodium”.
